27 compounds from patent publication US20220332708A1 (Cytokinetics, Inc., priority 2021, published 2022) can be followed below.

For this assay, the system named is Bovine cardiac myofibrils. The experiment in a line: Dose-dependent myofibril ATPase modulation (calcium-buffered, pyruvate kinase and lactate dehydrogenase-coupled ATPase assay at pCa25). Type of assay: biochemical. To be noted: concentration at which ATPase activity was 1.4-fold higher than the bottom of the dose curve, mean of a minimum of two independent tests. As to the method:
In Vitro Model of Dose-Dependent Myofibril ATPase Modulation
Dose responses were measured using a calcium-buffered, pyruvate kinase and lactate dehydrogenase-coupled ATPase assay containing the following reagents (concentrations expressed are final assay concentrations): Potassium PIPES (12 mM), MgCl2 (2 mM), ATP (1 mM), DTT (1 mM), BSA (0.1 mg/ml), NADH (0.5 mM), PEP (1.5 mM), pyruvate kinase (4 U/ml), lactate dehydrogenase (8 U/ml), and antifoam (90 ppm). The pH was adjusted to 6.80 at 22° C. by addition of potassium hydroxide. Calcium levels were controlled by a buffering system containing 0.6 mM EGTA and varying concentrations of calcium, to achieve a free calcium concentration of 1×10^−4 M to 1×10^−8 M.
Bovine cardiac myofibrils were obtained by homogenizing the appropriate tissue in the presence of detergent. Such treatment removes membranes and majority of soluble cytoplasmic proteins but leaves intact cardiac sarcomeric acto-myosin apparatus. Concentrations of myofibrils were adjusted to achieve the necessary rate of ATP hydrolysis (typically 0.25-1.0 mg/ml).
Chemical entity dose responses were measured at the calcium concentration corresponding to 25% of maximal ATPase activity (pCa25), so a preliminary experiment was performed to test the response of the ATPase activity to free calcium concentrations in the range of 1×10^−4 M to 1×10^−8 M. Subsequently, the assay mixture was adjusted to the pCa25. Assays were performed by first preparing a dilution series of test chemical entity, each with an assay mixture containing potassium Pipes, MgCl2, BSA, DTT, pyruvate kinase, lactate dehydrogenase, myofibrils, antifoam, EGTA, CaCl2), and water. The assay was started by adding an equal volume of solution containing potassium Pipes, MgCl2, BSA, DTT, ATP, NADH, PEP, antifoam, and water. ATP hydrolysis was monitored by absorbance at 340 nm. The resulting dose response curve was fit by the 4 parameter equation y=Bottom+((Top−Bottom)/(1+((EC50/X)^Hill))). […] AC1.4 values reported in the table below are mean values based on a minimum of two independent tests.
As to `CNc1cc2c(cc1S(=O)(=O)N[C@]1(C)C[C@H](Nc3cccc(F)c3)C1)c(=O)[nH]c(=O)n2C` [Compound 23, N-((cis)-3-((3-fluorophenyl)amino)-1-methylcyclobutyl)-1-methyl-7-(methylamino)-2,4-dioxo-1,2,3,4-tetrahydroquinazoline-6-sulfonamide], the AC1.4 amounted to 0.6045 µM.

Turning to `CNc1cc2nc(C)[nH]c(=O)c2cc1S(=O)(=O)NC1CC(c2cccc(F)c2)C1` (stereo not drawn) [Compound 24, N-(3-(3-fluorophenyl)cyclobutyl)-2-methyl-7-(methylamino)-4-oxo-3,4-dihydroquinazoline-6-sulfonamide], the AC1.4 was 5.6964 µM.

For `CNc1cc2c(cc1S(=O)(=O)N[C@H]1C[C@@H](Nc3ccc(F)cc3)C1)c(=O)[nH]c(=O)n2C` [Compound 25, N-((cis)-3-((4-fluorophenyl)amino)cyclobutyl)-1-methyl-7-(methylamino)-2,4-dioxo-1,2,3,4-tetrahydroquinazoline-6-sulfonamide], the AC1.4 was determined as 1.8965 µM.

`CNc1cc2c(cc1S(=O)(=O)N[C@H](C)Cc1cc3ccc(F)cc3[nH]1)c(=O)[nH]c(=O)n2C` [Compound 26, (R)-N-(1-(6-fluoro-1H-indo1-2-yl)propan-2-yl)-1-methyl-7-(methylamino)-2,4-dioxo-1,2,3,4-tetrahydroquinazoline-6-sulfonamide]: the AC1.4 amounted to 2.215 µM.

`CNc1cc2nc(C)[nH]c(=O)c2cc1S(=O)(=O)NC1CCc2c([nH]c3ccccc23)C1` (stereo not drawn) [Compound 28, 2-Methyl-7-(methylamino)-4-oxo-N-(2,3,4,9-tetrahydro-1H-carbazol-2-yl)-3,4-dihydroquinazoline-6-sulfonamide]: the AC1.4 is 0.2504 µM.

Consider `CNc1cc2nc(C)[nH]c(=O)c2cc1S(=O)(=O)NC(C)Cc1[nH]c2ccccc2c1C` (stereo not drawn) [Compound 29, 2-Methyl-N-(1-(3-methyl-1H-indo1-2-yl)propan-2-yl)-7-(methylamino)-4-oxo-3,4-dihydroquinazoline-6-sulfonamide], for which the AC1.4 worked out at 8.204 µM.

With `CCOC(=O)c1cc(S(=O)(=O)Nc2ccc(N3C[C@H](C)C[C@@H](C)C3)nc2)[nH]c1C` [Compound 30, Ethyl 5-(N-(6-((3R,5R)-3,5-dimethylpiperidin-1-yl)pyridin-3-yl)sulfamoyl)-2-methyl-1H-pyrrole-3-carboxylate], the AC1.4 amounted to 0.4832 µM.

For `Cc1[nH]c(S(=O)(=O)NC23COc4cc(F)c(Cl)cc4C2C3)cc1C(=O)N1CC(C)(C#N)C1` (stereo not drawn) [Compound 31, N-(6-chloro-5-fluoro-1,7b-dihydrocyclopropa[c]chromen-1a(2H)-yl)-4-(3-cyano-3-methylazetidine-1-carbonyl)-5-methyl-1H-pyrrole-2-sulfonamide], the AC1.4 is 1.274 µM.

As to `CNc1cc2nc(C)[nH]c(=O)c2cc1S(=O)(=O)N[C@H]1CCc2c([nH]c3ccccc23)C1` [Compound 32, (S)-2-Methyl-7-(methylamino)-4-oxo-N-(2,3,4,9-tetrahydro-1H-carbazol-2-yl)-3,4-dihydroquinazoline-6-sulfonamide], the AC1.4 turned out to be 5.8178 µM.

With `CNc1cc2nc(C)[nH]c(=O)c2cc1S(=O)(=O)NCCc1cc2ccccc2[nH]1` [Compound 34], the AC1.4 was 13.2484 µM.

For `CNC(=O)c1cc(S(=O)(=O)NC2CCc3c([nH]c4ccccc34)C2)[nH]c1C` (stereo not drawn) [Compound 35, N,2-dimethyl-5-(N-(2,3,4,9-tetrahydro-1H-carbazol-2-yl)sulfamoyl)-1H-pyrrole-3-carboxamide], the AC1.4 was determined as 6.2537 µM.

As to `Cc1[nH]c(S(=O)(=O)NC2CCc3c([nH]c4ccccc34)C2)cc1C(=O)N(C)C` (stereo not drawn) [Compound 36, N,N,2-trimethyl-5-(N-(2,3,4,9-tetrahydro-1H-carbazol-2-yl)sulfamoyl)-1H-pyrrole-3-carboxamide], the AC1.4 came to 6.922 µM.

As for `COCCNC(=O)c1cc(S(=O)(=O)NC2CCc3c([nH]c4ccccc34)C2)[nH]c1C` (stereo not drawn) [Compound 37, N-(2-methoxyethyl)-2-methyl-5-(N-(2,3,4,9-tetrahydro-1H-carbazol-2-yl)sulfamoyl)-1H-pyrrole-3-carboxamide], the AC1.4 worked out at 2.9421 µM.

Consider `Cc1[nH]c(S(=O)(=O)N[C@@H]2CCc3c([nH]c4ccccc34)C2)cc1C(N)=O` [Compound 38, (R)-2-methyl-5-(N-(2,3,4,9-tetrahydro-1H-carbazol-2-yl)sulfamoyl)-1H-pyrrole-3-carboxamide], for which the AC1.4 worked out at 4.3985 µM.

`Cc1[nH]c(S(=O)(=O)N[C@@H]2CCc3c([nH]c4ccccc34)C2)cc1C(=O)NCCO` [Compound 39, (R)-N-(2-hydroxyethyl)-2-methyl-5-(N-(2,3,4,9-tetrahydro-1H-carbazol-2-yl)sulfamoyl)-1H-pyrrole-3-carboxamide]: the AC1.4 is 1.722 µM.

On to `Cc1[nH]c(S(=O)(=O)N[C@@H]2CCc3c([nH]c4ccccc34)C2)cc1C(=O)N1CC(C)(C)C1` [Compound 40, (R)-4-(3,3-dimethylazetidine-1-carbonyl)-5-methyl-N-(2,3,4,9-tetrahydro-1H-carbazol-2-yl)-1H-pyrrole-2-sulfonamide], for which the AC1.4 turned out to be 0.0608 µM.

`Cc1[nH]c(S(=O)(=O)N[C@@H]2CCc3c([nH]c4ccccc34)C2)cc1C(=O)N1CCC1` [Compound 41, (R)-4-(azetidine-1-carbonyl)-5-methyl-N-(2,3,4,9-tetrahydro-1H-carbazol-2-yl)-1H-pyrrole-2-sulfonamide]: the AC1.4 was 0.2434 µM.

Consider `Cc1[nH]c(S(=O)(=O)N[C@@H]2CCc3c([nH]c4ccccc34)C2)cc1C(=O)N1CC(F)(F)C1` [Compound 42, (R)-4-(3,3-difluoroazetidine-1-carbonyl)-5-methyl-N-(2,3,4,9-tetrahydro-1H-carbazol-2-yl)-1H-pyrrole-2-sulfonamide], for which the AC1.4 was found to be 0.06395 µM.

For `Cc1[nH]c(S(=O)(=O)N[C@@H]2CCc3c([nH]c4ccccc34)C2)cc1C(=O)N1CC(C)(O)C1` [Compound 43], the AC1.4 came out at 0.1254 µM.

As for `Cc1[nH]c(S(=O)(=O)N[C@@H]2CCc3c([nH]c4ccccc34)C2)cc1C(=O)NCCF` [Compound 44, (R)-N-(2-fluoroethyl)-2-methyl-5-(N-(2,3,4,9-tetrahydro-1H-carbazol-2-yl)sulfamoyl)-1H-pyrrole-3-carboxamide], the AC1.4 stood at 0.906 µM.

Consider `Cc1[nH]c(S(=O)(=O)N[C@@H]2CCc3c([nH]c4ccccc34)C2)cc1C(=O)NCC(F)(F)F` [Compound 45, (R)-2-methyl-5-(N-(2,3,4,9-tetrahydro-1H-carbazol-2-yl)sulfamoyl)-N-(2,2,2-trifluoroethyl)-1H-pyrrole-3-carboxamide], for which the AC1.4 was 0.4627 µM.

Turning to `Cc1[nH]c(S(=O)(=O)N[C@@H]2CCc3c([nH]c4ccccc34)C2)cc1C(=O)N1CCCC1` [Compound 46, (R)-5-methyl-4-(pyrrolidine-1-carbonyl)-N-(2,3,4,9-tetrahydro-1H-carbazol-2-yl)-1H-pyrrole-2-sulfonamide], the AC1.4 was determined as 0.2277 µM.

For the compound `Cc1[nH]c(S(=O)(=O)N[C@@H]2CCc3c([nH]c4ccccc34)C2)cc1C(=O)N1CCCCC1` [Compound 47, (R)-5-methyl-4-(piperidine-1-carbonyl)-N-(2,3,4,9-tetrahydro-1H-carbazol-2-yl)-1H-pyrrole-2-sulfonamide], the AC1.4 came to 1.9857 µM.

For `Cc1[nH]c(S(=O)(=O)N[C@@H]2CCc3c([nH]c4ccccc34)C2)cc1C(=O)N1CC(C)(C#N)C1` [Compound 48, (R)-4-(3-cyano-3-methylazetidine-1-carbonyl)-5-methyl-N-(2,3,4,9-tetrahydro-1H-carbazol-2-yl)-1H-pyrrole-2-sulfonamide], the AC1.4 was found to be 0.04675 µM.

With `Cc1[nH]c(S(=O)(=O)Nc2ccc(N3C[C@H](C)C[C@@H](C)C3)nc2)cc1C(=O)N1CC(F)(F)C1` [Compound 49, 4-(3,3-Difluoroazetidine-1-carbonyl)-N-(6-((3R,5R)-3,5-dimethylpiperidin-1-yl)pyridin-3-yl)-5-methyl-1H-pyrrole-2-sulfonamide], the AC1.4 came out at 2.9024 µM.

As to `Cc1[nH]c(S(=O)(=O)N[C@H]2C[C@H](c3cccc(Cl)c3)C2)cc1C(=O)N1CC(C)(C#N)C1` [Compound 50, N-((trans)-3-(3-chlorophenyl)cyclobutyl)-4-(3-cyano-3-methylazetidine-1-carbonyl)-5-methyl-1H-pyrrole-2-sulfonamide], the AC1.4 came out at 0.5466 µM.

Turning to `Cc1[nH]c(S(=O)(=O)N[C@H]2C[C@H](c3cccc(F)c3)C2)cc1C(=O)N1CC(C)(C#N)C1` [Compound 51, 4-(3-Cyano-3-methylazetidine-1-carbonyl)-N-((trans)-3-(3-fluorophenyl)cyclobutyl)-5-methyl-1H-pyrrole-2-sulfonamide], the AC1.4 is 2.8889 µM.
